Experimental data reported in US7687624B2, “Process for the production of N-arylmorpholinones” (Merck Patent GmbH, priority 2003, dated 2010).

Conditions: pKa value of the amine; cited from earlier work

| SMILES | pKa |
| --- | --- |
| Cc1cc([N+](=O)[O-])ccc1N [2-Methyl-4-nitroaniline] | 1.04 |
| Nc1ccccc1[N+](=O)[O-] [2-Nitroaniline] | −0.23 |
| Nc1cccc([N+](=O)[O-])c1 [3-Nitroaniline] | 2.5 |
| Nc1ccc(C(=O)c2ccccc2)cc1 [4-Aminobenzophenone] | 2.2 |
| N#Cc1ccc(N)cc1 [4-Cyanoaniline] | 1.7 |
| COc1ccc(N)cc1 [4-Methoxyaniline] | 5.4 |
| NCc1ccccc1 [Benzylamine] | 9.5 |
| COC(=O)c1ccc(N)cc1 [Methyl 4-aminobenzoate] | 1.5 |

Conditions: not given

| melting point [°C] | SMILES |
| --- | --- |
| 150 to 152 | O=C1COCCN1c1ccc([N+](=O)[O-])cc1 [Example 1, 4-(4-Nitrophenyl)-3-oxomorpholine] |
